As usually defined, the inhibition is the drop in the measured response relative to a control, in per cent.

The values that follow come from ChEMBL document CHEMBL5678818, “Discovery of potent SOS1 inhibitors that block RAS activation via disruption of the RAS-SOS1 interaction” (Proc Natl Acad Sci U S A, 2019).

Test [1] concerns Phosphatidylinositol 4,5-bisphosphate 3-kinase catalytic subunit alpha isoform (Homo sapiens), P42336 [H1047Y]. Description: Inhibition of PIK3CA H1047Y mutant (unknown origin) assessed as residual activity at 100 nM by KINOMEscan analysis relative to control.
Test [2] deals with Homeodomain-interacting protein kinase 3 (Homo sapiens) (UniProt Q9H422). Nature of the test: Inhibition of HIPK3 (unknown origin) assessed as residual activity at 100 nM by KINOMEscan analysis relative to control.
Test [3] addresses T1, Serine/threonine-protein kinase STK11 (Homo sapiens) (UniProt Q15831).
T1 sequence (whole entry): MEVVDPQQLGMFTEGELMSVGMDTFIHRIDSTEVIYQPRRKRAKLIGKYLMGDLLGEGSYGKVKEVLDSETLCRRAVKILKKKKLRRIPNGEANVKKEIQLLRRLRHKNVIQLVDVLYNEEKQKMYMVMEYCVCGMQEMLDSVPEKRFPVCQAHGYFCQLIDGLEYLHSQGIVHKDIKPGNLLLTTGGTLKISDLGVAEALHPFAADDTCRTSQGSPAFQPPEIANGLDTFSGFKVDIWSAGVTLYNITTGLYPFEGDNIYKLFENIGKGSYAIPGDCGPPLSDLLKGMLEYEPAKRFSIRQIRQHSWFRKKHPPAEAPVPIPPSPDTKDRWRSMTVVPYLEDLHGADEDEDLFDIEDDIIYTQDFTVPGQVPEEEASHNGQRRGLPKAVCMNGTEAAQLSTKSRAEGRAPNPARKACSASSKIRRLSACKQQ
Description: Inhibition of LKB1 (unknown origin) assessed as residual activity at 100 nM by KINOMEscan analysis relative to control.

Test [4] addresses T2, Son of sevenless homolog 1 (Homo sapiens) (UniProt Q07889).
T2 sequence (whole entry): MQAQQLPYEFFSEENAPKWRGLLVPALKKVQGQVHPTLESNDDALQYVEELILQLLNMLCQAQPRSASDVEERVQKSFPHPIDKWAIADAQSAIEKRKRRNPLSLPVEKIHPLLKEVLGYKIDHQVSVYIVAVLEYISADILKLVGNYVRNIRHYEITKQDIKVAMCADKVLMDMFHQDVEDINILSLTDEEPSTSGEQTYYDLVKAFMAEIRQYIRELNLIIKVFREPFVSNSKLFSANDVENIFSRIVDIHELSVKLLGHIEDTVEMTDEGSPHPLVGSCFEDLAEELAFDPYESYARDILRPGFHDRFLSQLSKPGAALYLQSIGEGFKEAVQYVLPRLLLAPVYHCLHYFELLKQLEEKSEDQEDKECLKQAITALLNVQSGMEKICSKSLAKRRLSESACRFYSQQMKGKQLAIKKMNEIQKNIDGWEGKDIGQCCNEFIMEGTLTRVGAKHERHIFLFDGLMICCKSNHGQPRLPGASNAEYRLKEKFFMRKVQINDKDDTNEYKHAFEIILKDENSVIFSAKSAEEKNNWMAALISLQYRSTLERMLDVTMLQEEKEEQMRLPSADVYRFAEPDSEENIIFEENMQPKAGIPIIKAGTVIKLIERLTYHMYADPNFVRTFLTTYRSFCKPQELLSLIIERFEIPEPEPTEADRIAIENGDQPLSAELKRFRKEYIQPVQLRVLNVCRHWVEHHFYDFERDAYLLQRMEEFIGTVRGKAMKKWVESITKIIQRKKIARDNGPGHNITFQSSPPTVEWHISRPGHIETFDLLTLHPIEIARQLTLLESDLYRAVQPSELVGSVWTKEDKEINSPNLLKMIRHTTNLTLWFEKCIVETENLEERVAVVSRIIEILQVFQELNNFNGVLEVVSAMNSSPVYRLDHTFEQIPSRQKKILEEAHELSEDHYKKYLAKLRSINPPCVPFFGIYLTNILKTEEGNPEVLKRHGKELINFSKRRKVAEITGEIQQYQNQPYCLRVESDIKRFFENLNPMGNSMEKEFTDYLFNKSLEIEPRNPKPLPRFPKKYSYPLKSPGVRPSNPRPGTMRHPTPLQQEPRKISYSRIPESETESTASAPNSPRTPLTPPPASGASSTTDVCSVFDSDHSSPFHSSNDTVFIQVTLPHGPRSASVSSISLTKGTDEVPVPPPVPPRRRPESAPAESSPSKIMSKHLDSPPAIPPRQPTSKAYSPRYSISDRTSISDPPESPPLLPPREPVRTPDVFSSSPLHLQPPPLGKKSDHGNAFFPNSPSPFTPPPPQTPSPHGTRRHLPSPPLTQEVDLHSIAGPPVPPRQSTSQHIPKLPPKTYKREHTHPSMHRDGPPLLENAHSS
Nature of the test: Inhibition of N-terminal His10-tagged wild-type recombinant human SOS1 catalytic domain (564 to 1049 residues) expressed in Escherichia coli assessed as reduction in KRAS G12C mutant activation at 10 uM by HTRF analysis relative to control.

Test [5] has as its system Phosphatidylinositol 4,5-bisphosphate 3-kinase catalytic subunit alpha isoform (Homo sapiens), P42336 [E542K]. Nature of the test: Inhibition of PIK3CA E542K mutant (unknown origin) assessed as residual activity at 100 nM by KINOMEscan analysis relative to control.
The target of test [6] is Mitogen-activated protein kinase 7 (Homo sapiens) (UniProt Q13164). Nature of the test: Inhibition of ERK5 (unknown origin) assessed as residual activity at 100 nM by KINOMEscan analysis relative to control.
Test [7] has as its target BDNF/NT-3 growth factors receptor (Homo sapiens) (UniProt Q16620). Nature of the test: Inhibition of TRKB (unknown origin) assessed as residual activity at 100 nM by KINOMEscan analysis relative to control.

Phosphatidylinositol 4,5-bisphosphate 3-kinase catalytic subunit alpha isoform (Homo sapiens), P42336 [E542K], sequence (P42336 whole entry E542K, canonical isoform): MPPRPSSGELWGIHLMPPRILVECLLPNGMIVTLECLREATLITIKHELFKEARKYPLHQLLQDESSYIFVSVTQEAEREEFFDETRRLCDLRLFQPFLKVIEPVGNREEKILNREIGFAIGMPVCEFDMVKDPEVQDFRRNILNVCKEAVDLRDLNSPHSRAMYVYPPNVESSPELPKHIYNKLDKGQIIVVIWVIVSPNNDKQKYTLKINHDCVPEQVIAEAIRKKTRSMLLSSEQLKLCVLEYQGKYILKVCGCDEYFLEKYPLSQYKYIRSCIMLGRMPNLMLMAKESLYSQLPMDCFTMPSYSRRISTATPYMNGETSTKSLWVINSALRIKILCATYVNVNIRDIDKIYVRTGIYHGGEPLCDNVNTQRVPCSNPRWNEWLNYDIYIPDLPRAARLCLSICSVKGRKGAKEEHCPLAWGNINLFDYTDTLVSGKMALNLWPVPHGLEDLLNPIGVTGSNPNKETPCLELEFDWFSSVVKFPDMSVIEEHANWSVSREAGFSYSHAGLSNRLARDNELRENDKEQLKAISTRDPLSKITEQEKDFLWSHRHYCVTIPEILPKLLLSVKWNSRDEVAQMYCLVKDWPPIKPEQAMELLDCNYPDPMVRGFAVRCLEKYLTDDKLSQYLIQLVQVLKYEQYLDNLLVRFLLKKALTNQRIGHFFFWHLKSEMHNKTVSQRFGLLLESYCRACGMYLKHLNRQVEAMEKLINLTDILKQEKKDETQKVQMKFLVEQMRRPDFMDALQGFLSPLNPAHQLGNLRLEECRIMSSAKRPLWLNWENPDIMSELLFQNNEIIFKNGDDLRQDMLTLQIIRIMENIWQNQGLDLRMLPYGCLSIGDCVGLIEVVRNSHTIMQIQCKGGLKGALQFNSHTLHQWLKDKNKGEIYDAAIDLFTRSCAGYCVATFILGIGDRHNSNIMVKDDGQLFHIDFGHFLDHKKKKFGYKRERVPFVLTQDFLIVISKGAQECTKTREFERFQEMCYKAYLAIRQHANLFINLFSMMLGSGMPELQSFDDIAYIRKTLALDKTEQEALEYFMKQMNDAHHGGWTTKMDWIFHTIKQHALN
BDNF/NT-3 growth factors receptor (Homo sapiens), sequence (Q16620 32-822 limits assumed): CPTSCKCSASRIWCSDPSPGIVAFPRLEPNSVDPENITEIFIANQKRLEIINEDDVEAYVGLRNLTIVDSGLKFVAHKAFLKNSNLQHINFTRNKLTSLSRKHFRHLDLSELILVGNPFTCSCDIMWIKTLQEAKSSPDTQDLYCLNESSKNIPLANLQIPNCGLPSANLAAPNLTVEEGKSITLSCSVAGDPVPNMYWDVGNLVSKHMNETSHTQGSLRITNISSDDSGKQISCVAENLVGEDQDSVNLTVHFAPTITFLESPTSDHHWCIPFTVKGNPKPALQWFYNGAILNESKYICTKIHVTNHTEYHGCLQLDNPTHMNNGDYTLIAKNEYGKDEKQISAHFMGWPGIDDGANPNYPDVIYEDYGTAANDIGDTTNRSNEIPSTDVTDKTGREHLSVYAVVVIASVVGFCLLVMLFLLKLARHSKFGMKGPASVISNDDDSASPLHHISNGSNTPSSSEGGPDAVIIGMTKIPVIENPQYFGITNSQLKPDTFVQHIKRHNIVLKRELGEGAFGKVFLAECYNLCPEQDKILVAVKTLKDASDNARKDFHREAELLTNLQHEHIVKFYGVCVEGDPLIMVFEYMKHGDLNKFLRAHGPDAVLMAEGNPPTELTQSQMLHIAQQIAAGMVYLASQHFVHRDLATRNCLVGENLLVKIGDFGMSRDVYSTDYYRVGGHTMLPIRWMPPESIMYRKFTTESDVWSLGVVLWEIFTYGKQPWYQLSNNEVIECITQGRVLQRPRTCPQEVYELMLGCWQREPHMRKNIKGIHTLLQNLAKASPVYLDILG
Mitogen-activated protein kinase 7 (Homo sapiens), sequence (Q13164 2-816 limits assumed): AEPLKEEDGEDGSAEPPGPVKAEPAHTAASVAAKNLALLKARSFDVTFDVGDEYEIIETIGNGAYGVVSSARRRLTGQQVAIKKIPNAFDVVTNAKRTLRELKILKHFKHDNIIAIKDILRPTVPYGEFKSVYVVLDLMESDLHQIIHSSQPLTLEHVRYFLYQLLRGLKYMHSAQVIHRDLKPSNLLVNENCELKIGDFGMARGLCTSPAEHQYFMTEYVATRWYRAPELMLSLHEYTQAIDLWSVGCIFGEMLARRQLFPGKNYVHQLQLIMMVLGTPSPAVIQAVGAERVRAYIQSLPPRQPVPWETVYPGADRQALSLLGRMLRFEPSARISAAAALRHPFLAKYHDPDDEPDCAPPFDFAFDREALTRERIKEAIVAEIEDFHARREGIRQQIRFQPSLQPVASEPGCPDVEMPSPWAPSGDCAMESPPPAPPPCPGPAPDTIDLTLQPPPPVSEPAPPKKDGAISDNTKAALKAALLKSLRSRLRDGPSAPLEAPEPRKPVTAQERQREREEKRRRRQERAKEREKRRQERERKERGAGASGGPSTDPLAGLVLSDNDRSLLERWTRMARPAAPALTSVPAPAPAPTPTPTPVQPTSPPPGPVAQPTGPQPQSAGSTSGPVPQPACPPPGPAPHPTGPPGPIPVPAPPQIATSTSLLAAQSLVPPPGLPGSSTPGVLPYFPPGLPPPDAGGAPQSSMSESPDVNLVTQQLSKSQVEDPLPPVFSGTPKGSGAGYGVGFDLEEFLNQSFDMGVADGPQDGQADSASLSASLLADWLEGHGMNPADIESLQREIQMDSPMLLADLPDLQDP
Phosphatidylinositol 4,5-bisphosphate 3-kinase catalytic subunit alpha isoform (Homo sapiens), P42336 [H1047Y], sequence (P42336 whole entry H1047Y, canonical isoform): as the sequence (P42336 whole entry E542K, canonical isoform) above, with K542E, H1047Y counted along it
Homeodomain-interacting protein kinase 3 (Homo sapiens), sequence (Q9H422 whole entry, looked up): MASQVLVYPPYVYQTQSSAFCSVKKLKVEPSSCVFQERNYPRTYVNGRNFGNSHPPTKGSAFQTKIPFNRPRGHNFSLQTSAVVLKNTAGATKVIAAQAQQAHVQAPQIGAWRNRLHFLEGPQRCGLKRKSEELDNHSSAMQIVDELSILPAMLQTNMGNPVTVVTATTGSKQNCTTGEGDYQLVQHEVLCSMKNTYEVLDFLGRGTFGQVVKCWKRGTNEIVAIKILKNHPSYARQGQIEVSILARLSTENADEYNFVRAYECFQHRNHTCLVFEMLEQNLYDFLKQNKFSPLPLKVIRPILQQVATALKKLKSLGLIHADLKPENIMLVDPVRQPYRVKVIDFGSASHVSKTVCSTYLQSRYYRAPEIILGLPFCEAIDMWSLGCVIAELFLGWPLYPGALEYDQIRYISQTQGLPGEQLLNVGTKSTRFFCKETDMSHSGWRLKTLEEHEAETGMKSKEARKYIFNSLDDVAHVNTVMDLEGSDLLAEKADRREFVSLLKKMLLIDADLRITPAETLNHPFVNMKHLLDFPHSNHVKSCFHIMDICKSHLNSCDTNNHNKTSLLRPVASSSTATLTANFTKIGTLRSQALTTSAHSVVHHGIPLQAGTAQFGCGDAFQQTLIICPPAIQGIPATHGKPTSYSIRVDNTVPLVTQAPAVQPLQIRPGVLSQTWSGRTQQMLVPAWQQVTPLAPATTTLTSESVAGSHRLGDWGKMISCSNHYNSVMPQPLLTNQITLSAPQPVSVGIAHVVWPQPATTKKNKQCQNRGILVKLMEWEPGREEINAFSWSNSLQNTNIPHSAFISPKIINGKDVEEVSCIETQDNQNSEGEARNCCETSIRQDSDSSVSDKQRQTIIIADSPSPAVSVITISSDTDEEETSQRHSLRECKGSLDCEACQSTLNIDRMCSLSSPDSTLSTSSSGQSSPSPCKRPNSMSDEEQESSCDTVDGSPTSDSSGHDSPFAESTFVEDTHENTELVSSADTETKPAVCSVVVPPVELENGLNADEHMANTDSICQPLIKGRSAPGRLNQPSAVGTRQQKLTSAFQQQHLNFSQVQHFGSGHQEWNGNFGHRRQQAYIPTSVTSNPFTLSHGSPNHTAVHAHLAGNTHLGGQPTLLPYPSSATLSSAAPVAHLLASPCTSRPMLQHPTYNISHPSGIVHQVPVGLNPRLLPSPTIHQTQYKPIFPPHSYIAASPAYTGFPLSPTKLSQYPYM

Take `COc1cc2ncnc(N[C@H](C)c3cccc4ccccc34)c2cc1OC`: the Activity in test [1] came out at 73%; in test [2], 88%; in test [3] it was 100%; in test [5], 74%; in test [6], 84%; in test [7] it was 96%. The inhibition in test [4] was 95%.
